Experimental data published in patent US20110294861A1, “METHOD OF TREATMENT OF HEREDITARY HEMOCHROMATOSIS” (NOVARTIS AG, priority 2006, published 2011).

What was measured:
[1] = tested on: HJV−/− mice; experiment: Iron overload in a murine model of juvenile hemochromatosis (organ iron by ICP-OES); assay type: in vivo
Procedure: Compound I, a novel tridentate oral iron chelator, is effective in the treatment of patients with transfusional iron overload and it has not been investigated in primary iron overload. We sought to examine spontaneous iron loading and the effect of Compound I upon the removal of iron in HJV−/− mice with iron overload.
Methods: Inductively-Coupled Plasma Optical Emission Spectrometry (ICP-OES, measurement of elemental iron) determinations in liver, heart, spleen and pancreas were performed at week 8 (study start), 14, 20 and 28 in HJV−/− and wild type (wt) mice (n=6-8), subsequent to MRI measurements in heart and liver. Starting at week 20 three groups of HJV−/− animals received daily 0 (vehicle), 30 or 100 mg/kg Compound I, control wt-mice remained untreated. Iron loading was observed up to 28 weeks (including vehicle group) and the effects of Compound I were assessed by comparing the 28-week groups. MRI R2* measurements were performed using a 4.7T MR imager. For the myocardial and hepatic R2* assessments single slice, ECG gated gradient echo images and single slice transversal gradient echo images were acquired, respectively.

[2] = Plasma half life within the human body; assay type: in vivo
[3] = Exposure of Compound I in mice compared with human studies; assay type: in vivo; details: mice versus human studies
[4] = subcutaneous, 3 patients with HH; compared with weekly phlebotomy, e.g. 500 ml; cited from earlier work
[5] = in vivo; cited from earlier work
[6] = 100 mg/kg daily, week 20 to 28, HJV−/− mice, ICP-OES
[7] = hemojuvelin knock out mouse, within 8 weeks of treatment (conclusion)

| SMILES | effects on organ iron load ([1]; 30 mg/kg daily, HJV−/− mice) | effects on organ iron load in liver and heart ([1]; 100 mg/kg daily, HJV−/− mice) | pancreas iron ([1]; 100 mg/kg daily, HJV−/− mice) | heart iron reduced as compared to the (HJV−/−)-vehicle treated group [1, 6] [%] | liver iron reduced as compared to the (HJV−/−)-vehicle treated group [1, 6] [%] | liver and heart iron [1, 7] | pancreatic iron load [1, 7] | half-life [2] [h] | lower exposure in mice [3] | effectiveness of treatment of iron overload [4] | half life within the bloodstream [5] |
| --- | --- | --- | --- | --- | --- | --- | --- | --- | --- | --- | --- |
| O=C(O)c1ccc(-n2nc(-c3ccccc3O)nc2-c2ccccc2O)cc1 [Compound I, 4-[3,5-bis(2-hydroxyphenyl)-[1,2,4]triazol-1-yl]benzoic acid] | modest | quite pronounced | clear trend to lower levels | 41 | 63 | significantly reduced | trend to improvement | 8 to 16 | 6-9 times | – | – |
| CC(=O)N(O)CCCCCNC(=O)CCC(=O)N(O)CCCCCNC(=O)CCC(=O)N(O)CCCCCN [DFO, desferrioxamine] | – | – | – | – | – | – | – | – | – | as effective as weekly phlebotomy | short |
